Test results taken from ChEMBL document CHEMBL4130537, “Houttuynoid M, an Anti-HSV Active Houttuynoid from Houttuynia cordata Featuring a Bis-houttuynin Chain Tethered to a Flavonoid Core” (J Nat Prod, 2017).

What was measured:
[1] = Selectivity index, ratio of CC50 for African green monkey Vero cells to IC50 for HSV1/F; assay type: toxicity; conditions: read-out: Ratio CC50/IC50
[2] = Cytotoxicity against African green monkey Vero cells assessed as decrease in cell viability after 24 hrs by CellTiter-Glo luminescent assay; assay type: cell-based; conditions: chlorocebus sabaeus
[3] = tested on: Human alphaherpesvirus 1; test: Antiviral activity against HSV1/F infected in African green monkey Vero cells assessed as inhibition of plaque formation after 24 hrs by crystal violet staining-based assay; assay type: functional, organism-based; conditions: Human alphaherpesvirus 1, strain F

Compound	selectivity ratio [1]	CC50 at 24 h [2] [µM]	IC50 [3] [µM]
CCCCCCCCCC(=O)/C=C/c1c(CCCCCCCCC)oc2c(O)ccc(-c3oc4cc(O)cc(O)c4c(=O)c3O[C@@H]3O[C@H](CO)[C@H](O)[C@H](O)[C@H]3O)c12	> 11.3	> 200	17.7
CCCCCCCCCc1oc2c(O)ccc(-c3oc4cc(O)cc(O)c4c(=O)c3O[C@@H]3O[C@H](CO)[C@H](O)[C@H](O)[C@H]3O)c2c1C=O	> 16.1	> 200	12.4
Nc1nc2c(ncn2COCCO)c(=O)[nH]1 [ACYCLOVIR]	> 1330	> 200	0.15
